Entries after “also recorded” stand apart in the source; their conditions may differ.
Key:
Type in all cases: in vivo, human
[1] = test system: special operations veterans with combat and/or blast exposure; assay: Safety monitoring during and after treatment (adverse events, QTc by ECG)
Description: With subjects in the fasting state, an intravenous infusion of 1 gram of magnesium sulfate was administered 1-2 hours prior to treatment. […] Medical staff (MD, RN, or EMT) were onsite at a ratio of at least 1 staff per 2 patients throughout treatment for monitoring and management, but no specific coaching or psychological support was provided during treatment.

[2] = test system: special operations veterans with combat and/or blast exposure; assay: Clinician-rated psychiatric assessments taken together (CAPS-5, MADRS, HAM-A)
Description: To further assess changes in comorbid psychiatric symptoms identified by the models, mean percent reduction, response rate, and remission rate according to the CAPS-5, MADRS and HAM-A (Table 1) were calculated. Response on the CAPS-5, MADRS, and HAM-A was defined as a reduction of at least 10 points (Mitchell, J. M. et al., Nat. Med. 27, 1025-1033(2021)), 50% (Leucht, S. et al., J. Affect. Disord. 210, 287-293 (2017)), and 50% (McIntyre, A. et al., Depress. Anxiety 24, 487-494 (2007)), respectively; remission as loss of diagnosis and a total score below 12 (Mitchell, J. M. et al. supra), <8 (Leucht, S. et al. supra), and <8(McIntyre, A. et al., supra), respectively. One participant's baseline scores met criteria for remission in all three scales and so were excluded from the calculation of response and remission rates, leaving 29 participants in these specific analyses.
The results were similar, with remission rates at one-month follow up of at least 67% (Table 1-3 in Example 1). To determine if the participants with more severe TBI history may be biasing results, a sensitivity analysis excluding the participants with non-mild TBI; results was done, again with the results largely unchanged (Table 1-4 in Example 1), with remission rates at one-month follow up of at least 85%.

[3] = test system: special operations veterans with combat and/or blast exposure; assay: Functional MRI: resting-state functional connectivity and lag projection analysis
Description: Functional magnetic resonance imaging (fMRI) was performed on the subjects enrolled in the study described in Example 1. Neuroimaging is a branch of medical imaging that focuses on the brain. It utilizes techniques of physics, optics, and mathematics to quantify brain structure and function. […] During resting, subjects are asked to do nothing and the aim is to observe the brain at rest. When the subject is asked to perform a task, the aim is to observe how the brain works in response to the task. Other magnetic resonance based imaging techniques include: anatomical, which measures cortical thickness, area, gyrification, and volume: arterial spin labelling, which quantitatively measures tissue perfusion, cerebral blood flow, where perfusion refers to the delivery of oxygen and nutrients to tissue by means of blood flow: and, diffusion tensor imaging, which measures diffusion of water through white natter, such as neural fiber tracts. fMRI can provide a series of images that form a film, as opposed to a single image obtained in MRI.
The human brain is a series of well-organized and optimized series of efficient networks. […] The functional connectivity networks evaluated in a region of interest in the brain included those identified in Table 2-1 of Example 2.
fMRI data was also analyzed to inspect activity patterns as a function of time. […]

[4] = one-week and one-month post, 29 participants

With `CCC1CC2CC3c4[nH]c5ccc(OC)cc5c4CCN(C2)C13` (centres unmarked) [ibogaine, Ibogaine] the “participants with transient cerebellar signs such as mild ataxia and intention tremor” value ([1]; 30 participants) was “All participants”, the “unexpected or serious treatment-emergent side effects / adverse events” value ([1]; 30 participants, oral ibogaine with IV magnesium sulfate) was “no unexpected or serious treatment-emergent side effects; also recorded: no unexpected or serious adverse events” and the “prolongation of QTc” value ([1]; continuous 5-lead ECG for 12-16 hours following administration) was “no instances of a concerning prolongation of QTc”. For the same compound, the “time to resolution of transient cerebellar signs” value ([1]; human, in vivo, oral) was ≤ 24 h, the “participants treated for insomnia” value ([1]; while experiencing the oneirogenic effects, 1 participant) was 3% and the “participants treated for hypertension” value ([1]; while experiencing the oneirogenic effects, 2 participants) was 7%. The “participants treated for anxiety” value ([1]; while experiencing the oneirogenic effects, 3 participants) was 10%, the “participants treated for nausea” value ([1]; while experiencing the oneirogenic effects, 7 participants) was 23% and the “participants treated for headache” value ([1]; while experiencing the oneirogenic effects, 12 participants) was 40%. For the same compound, the “remission rates on CAPS-5, MADRS and HAM-A” value ([2]; one-month follow up, excluding participants with non-mild TBI) was “at least 85%”, the “remission rates on CAPS-5, MADRS and HAM-A” value ([2]; one-month follow up, subgroups meeting criteria for the disorder assessed by the scale) was “at least 67%” and the “remission rates on CAPS-5, MADRS and HAM-A” value [2, 4] was “at least 83%”. For the same compound, the “response rates on CAPS-5, MADRS and HAM-A” value [2, 4] was “at least 93%”, the “mean percent reductions on CAPS-5, MADRS and HAM-A” value ([2]; one-week and one-month post, all participants) was “at least 81%” and the “remission rates for comorbid PTSD, depression, and anxiety” value ([2]; secondary analyses) was “around 80%”. The “lag projection of BOLD fMRI in left orbitofrontal gyrus and inferior frontal gyrus” value ([3]; baseline vs about four days post treatment, paired T-test, fwec p<0.001) was “relative slowing” and the “functional connection pairs in the brain networks reorganized (resting state functional connectivity)” value ([3]; within a few days after treatment, persisted to one-month post treatment) was 22.
